Data reported in US20120197004A1, “NOVEL ANTI-MICROBIAL PEPTIDOMIMETIC COMPOUNDS AND METHODS TO CALCULATE ANTI-MICROBIAL ACTIVITY” (priority 2006, published 2012).
Converted amounts (≈) assume the structure as drawn. Where two headings read alike, the source gives them in different places. Where a SMILES comes first, the peptide text is derived from it. [ ]: non-standard residue; d: D form. The star is where a group is joined. ξ: configuration not given here. Biotin = O=C1N[C@H]2[C@H](CS[C@H]2CCCCC(=O)*)N1; Oic = O=C(O)[C@@H]1C[C@@H]2CCCC[C@@H]2N1; Tic = O=C(O)[C@@H]1Cc2ccccc2CN1; ξTic = O=C(O)C1Cc2ccccc2CN1; ξOic = O=C(O)C1CC2CCCCC2N1; Orn = NCCC[C@H](N)C(=O)O; NH(CH2)3NH2 = NCCCN*

Experiments:
[1] = tested on: Salmonella typhimurium (ATCC 13311); settings: for p(MIC) Salmonella typhimurium: -log(MIC); for MIC Salmonella typhimurium: ATCC 13311
[2] = tested on: Staphylococcus aureus Methicillin/Gentamicin/Tetracycline Resistant (ATCC 33592); settings: for p(MIC) Staphylococcus aureus ME/GM/TC resistant: -log(MIC); for Minimum Inhibitory Concentration Staphylococcus aureus ME/GM/TC resistant: in vitro MIC, tested at 100, 30, 10, 3, 1, 0.3 and 0.1 μM in 1% DMSO; for Actual Bioactivity: p(MIC) used in Staphylococcus aureus QSAR model; for MIC Staphylococcus aureus ME/GM/TC resistant: Minimal Inhibitory Concentration, tested at 100-0.1 in 1% DMSO
[3] = tested on: Mycobacterium ranae (ATCC 110)
[4] = tested on: Bacillus subtillis (ATCC 43223); settings: for p(MIC) Bacillus Subtillis: -log(MIC); for MIC Bacillus Subtillis: ATCC 43223
in vitro [5] = settings: monkey, microsomes, pH 7.4
in vitro [6] = settings: dog, microsomes, pH 7.4
in vitro [7] = settings: mouse, microsomes, pH 7.4
in vitro [8] = settings: rat, microsomes, pH 7.4

Compound | p(MIC) Salmonella typhimurium [1] | MIC Salmonella typhimurium [1] [µM] | p(MIC) Staphylococcus aureus ME/GM/TC resistant [2] | Minimum Inhibitory Concentration Staphylococcus aureus ME/GM/TC resistant [2] [µM] | Actual Bioactivity [2] | % hemolysis 100/25 μM (first value) (red blood cells) [%/] | % hemolysis 100/25 μM (second value) (red blood cells) [%] | Actual Bioactivity [3] | MIC Mycobacterium ranae ([3]; ATCC 110) [µM] | Minimum Inhibitory Concentration Mycobacterium ranae ([3]; ATCC 110) [µM] | p(MIC) Bacillus Subtillis [4] | MIC Bacillus Subtillis [4] [µM] | MIC Staphylococcus aureus ME/GM/TC resistant [2] [µM] | further results
NCCCC[C@H](NC(=O)[C@H](CCCCN)NC(=O)[C@H](CCCCN)NC(=O)[C@H](CCCCN)NC(=O)[C@@H]1Cc2ccccc2CN1C(=O)[C@H](CCCCN)NC(=O)CNC(=O)[C@@H]1C[C@@H]2CCCC[C@@H]2N1C(=O)[C@@H]1Cc2ccccc2CN1C(=O)[C@H](Cc1ccccc1)NC(=O)CNC(=O)[C@@H]1C[C@@H]2CCCC[C@@H]2N1C(=O)[C@@H]1Cc2ccccc2CN1C(=O)[C@H](CCCCN)NC(=O)CNC(=O)[C@@H]1C[C@@H]2CCCC[C@@H]2N1C(=O)[C@@H]1Cc2ccccc2CN1C(=O)[C@H](Cc1ccccc1)NC(=O)CN)C(N)=O [FKAB-1Ga, NH2--GF-Tic-Oic-GK-Tic-Oic-GF-Tic-Oic-GK-Tic-KKKK-CONH2] (H-GF[Tic][Oic]GK[Tic][Oic]GF[Tic][Oic]GK[Tic]KKKK-NH2) | 5.52 | 3 (≈ 7.2 µg/mL) | 5.00 | 10 | 5.000 | 33.4 | 14.3 | 5.000 | 10.00 (≈ 24 µg/mL) | 10 | 6.00 | 1.00 (≈ 2.4 µg/mL) |  | 
CC(=O)NCC(=O)N[C@@H](Cc1ccccc1)C(=O)NCC(=O)N1C(C(=O)NCC(=O)N[C@@H](CCCCN)C(=O)NCC(=O)N2C(C(=O)NCC(=O)N[C@@H](Cc3ccccc3)C(=O)NCC(=O)N3C(C(=O)NCC(=O)N[C@@H](CCCCN)C(=O)NCC(=O)N[C@@H](CCCCN)C(=O)N[C@@H](CCCCN)C(=O)N[C@@H](CCCCN)C(=O)N[C@@H](CCCCN)C(N)=O)CC4CCCCC43)CC3CCCCC32)CC2CCCCC21 (some centres unmarked) [FKAB-1Gf1, Ac-GF-G-Oic-GK-G-Oic-GF-G-Oic-GK-G-KKKK-CONH2] (Ac-GFG[ξOic]GKG[ξOic]GFG[ξOic]GKGKKKK-NH2) |  |  |  |  |  | 3.30 | 3.3 |  | 100.00 (≈ 203 µg/mL) |  |  | 30.00 (≈ 61 µg/mL) |  | 
CC(=O)NCC(=O)N[C@@H](Cc1ccccc1)C(=O)N1Cc2ccccc2CC1C(=O)NCC(=O)NCC(=O)N[C@@H](CCCCN)C(=O)N1Cc2ccccc2CC1C(=O)NCC(=O)NCC(=O)N[C@@H](Cc1ccccc1)C(=O)N1Cc2ccccc2CC1C(=O)NCC(=O)NCC(=O)N[C@@H](CCCCN)C(=O)N1Cc2ccccc2CC1C(=O)N[C@@H](CCCCN)C(=O)N[C@@H](CCCCN)C(=O)N[C@@H](CCCCN)C(=O)N[C@@H](CCCCN)C(N)=O (some centres unmarked) [FKAB-1Gg1, Ac-GF-Tic-G-GK-Tic-G-GF-Tic-G-GK-Tic-KKKK-CONH2] (Ac-GF[ξTic]GGK[ξTic]GGF[ξTic]GGK[ξTic]KKKK-NH2) |  | 100 (≈ 216 µg/mL) |  |  |  | 5.70 | 3.80 |  | 30.00 (≈ 64.8 µg/mL) |  |  | 10.00 (≈ 21.6 µg/mL) |  | 
CC(=O)NCC(=O)N[C@@H](Cc1ccccc1)C(=O)N1Cc2ccccc2C[C@H]1C(=O)N1[C@H](C(=O)NCC(=O)N[C@@H](CCCCN)C(=O)N2Cc3ccccc3C[C@H]2C(=O)N2[C@H](C(=O)NCC(=O)N[C@@H](Cc3ccccc3)C(=O)N3Cc4ccccc4C[C@H]3C(=O)N3[C@H](C(=O)NCC(=O)N[C@@H](CCCCN)C(=O)N4Cc5ccccc5C[C@H]4C(=O)N[C@@H](CCCN)C(=O)N[C@@H](CCCN)C(=O)N[C@@H](CCCN)C(=O)N[C@@H](CCCN)C(N)=O)C[C@@H]4CCCC[C@@H]43)C[C@@H]3CCCC[C@@H]32)C[C@@H]2CCCC[C@@H]21 [FKAB-1Gj, Ac-GF-Tic-Oic-GK-Tic-Oic-GF-Tic-Oic-GK-Tic-Orn-Orn-Orn-Orn-CONH2] (Ac-GF[Tic][Oic]GK[Tic][Oic]GF[Tic][Oic]GK[Tic][Orn][Orn][Orn][Orn]-NH2) | 5.00 | 10 (≈ 23.8 µg/mL) | 5.00 | 10 | 5.000 |  |  | 5.000 | 10.00 (≈ 23.8 µg/mL) |  | 6.00 | 1.00 (≈ 2.38 µg/mL) | 10.00 (≈ 23.8 µg/mL) | Minimum Inhibitory Concentration Mycobacterium ranae [3]: 10 µM
NCCCC[C@H](NC(=O)[C@H](CCCCN)NC(=O)[C@H](CCCCN)NC(=O)[C@H](CCCCN)NC(=O)C1Cc2ccccc2CN1C(=O)[C@H](CCCCN)NC(=O)CNC(=O)C1CC2CCCCC2N1C(=O)C1Cc2ccccc2CN1C(=O)[C@H](Cc1ccccc1)NC(=O)CNC(=O)C1CC2CCCCC2N1C(=O)C1Cc2ccccc2CN1C(=O)[C@H](CCCCN)NC(=O)CNC(=O)C1CC2CCCCC2N1C(=O)C1Cc2ccccc2CN1C(=O)[C@H](Cc1ccccc1)NC(=O)CNC(=O)CCCC[C@@H]1SC[C@@H]2NC(=O)N[C@@H]21)C(N)=O (stereo partly drawn) [FKAB-1Gl, Biotin-GF-Tic-Oic-GK-Tic-Oic-GF-Tic-Oic-GK-Tic-KKKK-CONH2] (Biotin-GF[ξTic][ξOic]GK[ξTic][ξOic]GF[ξTic][ξOic]GK[ξTic]KKKK-NH2) |  |  |  | 3 |  |  |  |  |  | 10 |  |  |  | remaining at 0.25 h, 1 μM (in vitro [5]): 80%; remaining at 0.5 h, 1 μM (in vitro [5]): 77%; remaining at 1 h, 1 μM (in vitro [5]): 77%; remaining at 0.5 h, 1 μM (in vitro [6]): 84%; remaining at 1 h, 1 μM (in vitro [6]): 80%; remaining at 0.25 h, 1 μM (in vitro [7]): 96%; remaining at 0.5 h, 1 μM (in vitro [7]): 87%; remaining at 1 h, 1 μM (in vitro [7]): 78%; remaining at 0.25 h, 1 μM (in vitro [8]): 73%; remaining at 0.5 h, 1 μM (in vitro [8]): 83%; remaining at 1 h, 1 μM (in vitro [8]): 105%
CC(=O)NCC(=O)N[C@@H](Cc1ccccc1)C(=O)N1Cc2ccccc2C[C@H]1C(=O)N1[C@H](C(=O)NCC(=O)N[C@@H](CCCCN)C(=O)N2Cc3ccccc3C[C@H]2C(=O)N2[C@H](C(=O)NCC(=O)N[C@@H](Cc3ccccc3)C(=O)N3Cc4ccccc4C[C@H]3C(=O)N3[C@H](C(=O)NCC(=O)N[C@@H](CCCCN)C(=O)N4Cc5ccccc5C[C@H]4C(=O)N[C@@H](CCCCN)C(=O)N[C@@H](CCCCN)C(=O)N[C@@H](CCCCN)C(=O)N[C@@H](CCCCN)C(=O)NCCCN)C[C@@H]4CCCC[C@@H]43)C[C@@H]3CCCC[C@@H]32)C[C@@H]2CCCC[C@@H]21 [FKAB-1L, Ac-GF-Tic-Oic-GK-Tic-Oic-GF-Tic-Oic-GK-Tic-KKKK-CONH—CH2—CH2—CH2—NH2] (Ac-GF[Tic][Oic]GK[Tic][Oic]GF[Tic][Oic]GK[Tic]KKKK-{NH(CH2)3NH2}) | 4.52 | 30 (≈ 74.9 µg/mL) | 5.00 | 10 | 5.000 |  |  | 5.000 | 10.00 (≈ 25 µg/mL) | 10 | 5.52 | 3.00 (≈ 7.49 µg/mL) | 10.00 (≈ 25 µg/mL) | 
